Results as given in patent publication US12583895B2, “Polypeptides for restoring endothelial function and methods of use thereof” (Vanderbilt University, priority 2019, dated 2026).
Entries after “also recorded” stand apart in the source; their conditions may differ. Non-standard residues stand in square brackets, D forms with d. No end group written: not given here. pS = N[C@@H](COP(=O)(O)O)C(=O)O

Assays:
p38 MAPK phosphorylation = p38 MAPK phosphorylation (Western blot) in anisomycin-treated rat aorta; format: cell-based; details: NiPp 500 μM 30 min pretreatment, then anisomycin 200 μM 1 h, immunoblot
Description: RA rings were suspended in a muscle bath and incubated with either buffer alone (Ctrl), Aniso (200 μM) for 1 h, or NiPp (500 μM) for 30 min followed by Aniso (200 μM) for 1 h. […] Proteins were extracted […] immunoblotted to examine p38MAPK phosphorylation. Quantification of relative phosphorylation to total p38MAPK level is shown. n=10, *p<0.05 in one-way ANOVA with Tukey post-test. NiPp restores endothelial dysfunction and reduced p38 MAPK phosphorylation induced by anisomycin in RA.
RA rings were suspended in a muscle bath and incubated with either buffer alone (Ctrl), Aniso (200 μM) for 1 h, or NiPp (500 μM) for 30 min followed by Aniso (200 μM) for 1 h. […] The force generated was determined and was adjusted to the weight and length of the tissue. […] Proteins were extracted and phosphorylation of p38 MAPK was determined by Western blot analysis. […] Data are expressed as mean±SD.
p38 MAPK activation with Anisomycin. […] After treatments, endothelial-dependent relaxation was determined or tissues were snap-frozen for Western blot analysis.
Western blot Analysis. […] The protein-antibody complexes were visualized and quantified using the Odyssey Infrared Imaging System. Phosphorylation was calculated as a ratio of the phosphorylated protein to total protein and was then normalized to the untreated tissues (Ctrl) with the control value set as 1.0.

rat aorta = experiment: Endothelial-dependent relaxation of rat aorta after acidosis (normal saline) injury; format: cell-based; details: NiPp 500 μM 30 min pretreatment in PL, then NS with NiPp 500 μM 2 h
Description: Freshly isolated rat aorta (RA) was cut into rings and then pretreated in the absence or presence of NiPp (500 μM) in PL for 30 min. Tissue rings were then transferred to normal saline (NS) to induce injury in the absence or presence of NiPp (500 μM) and continued incubation for 2 h at room temperature. After treatments, RA were suspended in the muscle bath, contracted with PE and then treated with escalating doses of carbachol (CCH; 10^−8 to 10^−5 M). The percent relaxation was determined as a change to the maximal PE-induced contraction. n=5-7 rats. *p<0.05 in two-way ANOVA with Tukey post-test. NiPp restores NS-induced endothelial dysfunction in RA.
Tissue rings were then transferred to NS and continued incubation in the absence or presence of NiPp (500 μM) for 2 h at room temperature. Control rings (Ctrl) were incubated in PL for 2.5 h. […] The percent relaxation was determined as a change to the maximal PE-induced contraction. […] Data are expressed as mean±SD. […]
This produced the maximal force tension relationship as previously described. […] Contractile responses were defined by stress, calculated using force generated by tissues as follows: stress (×10^5 N/m^2)=force (g)×0.0987/area, where area=wet weight (mg)/at maximal length (mm)]/1.055.
Relaxation was calculated as percent change in stress compared to the maximal PE-induced contraction (set as 100%). […]

For “YARAAARQARASPAARRA(pS)AILPG (YARAAARQARASPAARRA[pS]AILPG) [NiPp, Cell-permeant phosphopeptide mimetic of Niban: transduction domain … conjugated to the region surrounding serine 602 of Niban]”, which “anisomycin-induced p38 MAPK phosphorylation relative to total p38 MAPK” value (p38 MAPK phosphorylation) is on record?
The value was “decreased; also recorded: reduced; also recorded: prevented”.

What about the “endothelial function (percent relaxation to carbachol) after acidosis (normal saline) injury” value (rat aorta) of the same substance?
The value was “improved; also recorded: restores”.
